Measurements from patent US12358894B2 (priority 2019, dated 2025).

Test system: pathogens of rice blast
Assay type: cell-based
Details: test solution 2000 ppm, 1,000 μl on oatmeal culture medium, 4-mm rice blast disc, 25° C., 6 days; calculated from elongation length of hyphae with vs without treatment

Q: For `COc1nc(-n2cccn2)nc(F)c1C(F)(F)F` [Example 1, 6-fluoro-4-methoxy-2-(1-pyrazolyl)-5-(trifluoromethyl)pyrimidine], which Preventive value is on record?
A: 100
